# In patent EP2298778A1, “IMIDAZOTHIAZOLE DERIVATIVE HAVING 4,7-DIAZASPIROÝ2.5¨OCTANE RING STRUCTURE” (Daiichi Sankyo Company, Limited, priority 2008, dated 2009):
# Assay: Metabolic stability test (microsomal metabolism test)
# Format: in vitro ADME
# Conditions: pH 7.4; human-derived liver microsomes, test compound remaining after addition of NADP+ and incubation at 37°C for 30 minutes; read-out: metabolic stability of T/C%
# Experimental: (Test Example 3 Metabolic stability test) 100 µL of 100 mM phosphate buffer solution (pH 7.4) containing 3 µM test compound was added to 100 µL of reaction solution containing 100 mM phosphate buffer solution (pH 7.4), 30 mM glucose 6-phosphate, 10 mM MgCl2·6H2O, 3 units/mL glucose 6-phosphate 1-dehydrogenase, and 0.3 to 1.5 mgP/mL human liver microsomes and the mixture was incubated at 37°C for 20 minutes. Then, 70 µL of 100 mM phosphate buffer solution (pH 7.4) containing 3 mM NADP^+ was added and the mixture was incubated at 37°C for 30 minutes to conduct a microsomal metabolism test. The metabolic stability was calculated according to the following formula: T/C (%) = ((concentration of test compound after addition of NADP)^+and incubation for30minutes)/((concentration of test compound before addition of NADP)^+) × 100. [formula] […]
row,Compound,remaining at 0.5 h [%]
1,"CC(C)C1=C(C(=O)N2C(=O)CC[C@H]2C(=O)N2CCNC3(CC3)C2)SC2=N[C@@](C)(c3ccc(Cl)nc3)[C@@H](c3ccc(Cl)c(F)c3)N21 [Example 44, (5S)-1-{[(5R,6S)-5-(4-chloro-3-fluorophenyl)-6-(6-chloropyridin-3-yl)-3-isopropyl-6-methyl-5,6-dihydroimidazo[2,1-b][1,3]thiazol-2-yl]carbonyl}-5-(4,7-diazaspiro[2.5]oct-7-ylcarbonyl)pyrrolidin-2-one]",≥ 50
2,"CC(C)C1=C(C(=O)N2[C@H](C)CC[C@H]2C(=O)N2C[C@@H](C)N(C)C3(CC3)C2)SC2=N[C@@](C)(c3ccc(Cl)nc3)[C@@H](c3ccc(Cl)c(F)c3)N21 [Example 18, (5R)-7-[(5R)-1-{[(5R,6S)-5-(4-chloro-3-fluorophenyl)-6-(6-chloropyridin-3-yl)-3-isopropyl-6-methyl-5,6-dihydroimidazo[2,1-b][1,3]thiazol-2-yl]carbonyl}-5-methyl-L-prolyl]-4,5-dimethyl-4,7-diazaspiro[2.5]octane]",≥ 50
3,"CC(C)C1=C(C(=O)N2[C@H](C)CC[C@H]2C(=O)N2CCNC3(CC3)C2)SC2=N[C@@](C)(c3ccc(Cl)nc3)[C@@H](c3ccc(Cl)c(Cl)c3)N21 [Example 31, 7-[(5R)-1-{[(5R,6S)-6-(6-chloropyridin-3-yl)-5-(3,4-dichlorophenyl)-3-isopropyl-6-methyl-5,6-dihydroimidazo[2,1-b][1,3]thiazol-2-yl]carbonyl}-5-methyl-L-prolyl]-4,7-diazaspiro [2.5] octane]",≥ 50
4,"CC[C@@H]1CC[C@@H](C(=O)N2CCNC3(CC3)C2)N1C(=O)C1=C(C(C)C)N2C(=N[C@@](C)(c3ccc(Cl)nc3)[C@H]2c2ccc(Cl)c(F)c2)S1 [Example 32, 7-[(5R)-1-{[(5R,6S)-5-(4-chloro-3-fluorophenyl)-6-(6-chloropyridin-3-yl)-3-isopropyl-6-methyl-5,6-dihydroimidazo[2,1-b][1,3]thiazol-2-yl]carbonyl}-5-ethyl-L-prolyl]-4,7-diazaspiro[2.5]octane]",≥ 50
5,"CC(C)C1=C(C(=O)N2[C@H](CF)CC[C@H]2C(=O)N2CCNC3(CC3)C2)SC2=N[C@@](C)(c3ccc(Cl)nc3)[C@@H](c3ccc(Cl)c(F)c3)N21 [Example 40, 7-[(5S)-1-{[(5R,6S)-5-(4-chloro-3-fluorophenyl)-6-(6-chloropyridin-3-yl)-3-isopropyl-6-methyl-5,6-dihydroimidazo[2,1-b][1,3]thiazol-2-yl]carbonyl}-5-(fluoromethyl)-L-prolyl]-4,7-diazaspiro[2.5]octane]",≥ 50
6,"CC(C)C1=C(C(=O)N2[C@H](C)CC[C@H]2C(=O)N2CCNC3(CC3)C2)SC2=N[C@@](C)(c3ccc(C#N)cc3)[C@@H](c3ccc(Cl)c(F)c3)N21 [Example 30, 4-[(5R,6S)-5-(4-chloro-3-fluorophenyl)-2-{[(2S,5R)-2-(4,7-diazaspiro[2.5]oct-7-ylcarbonyl)-5-methylpyrrolidin-1-yl]carbonyl}-3-isopropyl-6-methyl-5,6-dihydroimidazo[2,1-b][1,3]thiazol-6-yl]benzonitrile]",≥ 50
7,"CC(C)C1=C(C(=O)N2[C@H](C)CC[C@H]2C(=O)N2C[C@@H](C)NC3(CC3)C2)SC2=N[C@@](C)(c3ccc(Cl)nc3)[C@@H](c3ccc(Cl)c(F)c3)N21 [Example 17, (5R)-7-[(5R)-1-{ [(5R,6S)-5-(4-chloro-3-fluorophenyl)-6-(6-chloropyridin-3-yl)-3-isopropyl-6-methyl-5,6-dihydroimidazo[2,1-b][1,3]thiazol-2-yl]carbonyl}-5-methyl-L-prolyl]-5-methyl-4,7-diazaspiro[2.5]octane]",≥ 50
8,"CC(C)C1=C(C(=O)N2[C@H](C)CC[C@H]2C(=O)N2CCN(CCO)C3(CC3)C2)SC2=N[C@@](C)(c3ccc(Cl)cc3)[C@@H](c3ccc(Cl)cc3)N21 [Example 3, 2-{7-[(5R)-1-{[(5R,6S)-5,6-bis(4-chlorophenyl)-3-isopropyl-6-methyl-5,6-dihydroimidazo[2,1-b][1,3]thiazol-2-yl]carbonyl}-5-methyl-L-prolyl]-4,7-diazaspiro[2.5]oct-4-yl}ethanol]",≥ 50
9,"CC(C)C1=C(C(=O)N2[C@H](C)CC[C@H]2C(=O)N2CCNC3(CC3)C2)SC2=N[C@@](C)(c3ccc(Cl)nc3)[C@@H](c3ccc(F)c(Cl)c3)N21 [Example 26, 7-[(5R)-1-{[(5R,6S)-5-(3-chloro-4-fluorophenyl)-6-(6-chloropyridin-3-yl)-3-isopropyl-6-methyl-5,6-dihydroimidazo[2,1-b][1,3]thiazol-2-yl]carbonyl}-5-methyl-L-prolyl]-4,7-diazaspiro[2.5]octane]",≥ 50
10,"CC(C)C1=C(C(=O)N2[C@H](C)CC[C@H]2C(=O)N2CCNC3(CC3)C2)SC2=N[C@@](C)(c3ccc(Cl)nc3)[C@@H](c3ccc(Cl)c(F)c3)N21 [Example 11, 7-[(5R)-1-{[(5R,6S)-5-(4-chloro-3-fluorophenyl)-6-(6-chloropyridin-3-yl)-3-isopropyl-6-methyl-5,6-dihydroimidazo[2,1-b] [1,3]thiazol-2-yl]carbonyl}-5-methyl-L-prolyl]-4,7-diazaspiro[2.5]octane]",≥ 50
11,"CC(C)C1=C(C(=O)N2[C@H](CF)CC[C@H]2C(=O)N2CCNC3(CC3)C2)SC2=N[C@@](C)(c3ccc(Cl)cc3)[C@@H](c3ccc(Cl)cc3)N21 [Example 38, 7-[(5S)-1-{[(5R,6S)-5,6-bis(4-chlorophenyl)-3-isopropyl-6-methyl-5,6-dihydroimidazo[2,1-b][1,3]thiazol-2-yl]carbonyl}-5-(fluoromethyl)-L-prolyl]-4,7-diazaspiro[2.5]octane]",≥ 50

# Next, values leading:
row,remaining at 0.5 h [%],Compound
1,≥ 50,"CC(C)C1=C(C(=O)N2C[C@@H]3C[C@@H]3[C@H]2C(=O)N2CC3(CC3)NC[C@@H]2C)SC2=N[C@@](C)(c3ccc(Cl)nc3)[C@@H](c3ccc(Cl)c(F)c3)N21 [Example 69, (65)-7-{[(1S,25,5R)-3-{[(5R,65)-5-(4-chloro-3-fluorophenyl)-6-(6-chloropyridin-3-yl)-3-isopropyl-6-methyl-5,6-dihydroimidazo[2,1-b][1,3]thiazol-2-yl]carbonyl}-3-azabicyclo[3.1.0]hex-2-yl]carbonyl}-6-methyl-4,7-diazaspiro[2.5]octane]"
2,≥ 50,"CC[C@@H]1CNC2(CC2)CN1C(=O)[C@@H]1CCCN1C(=O)C1=C(C(C)C)N2C(=N[C@@](C)(c3ccc(Cl)nc3)[C@H]2c2ccc(Cl)c(F)c2)S1 [Example 62, (6R)-7-(1-{[(5R,6S)-5-(4-chloro-3-fluorophenyl)-6-(6-chloropyridin-3-yl)-3-isopropyl-6-methyl-5,6-dihydroimidazo[2,1-b][1,3]thiazol-2-yl]carbonyl}-L-prolyl)-6-ethyl-4,7-diazaspiro[2.5]octane]"
3,≥ 50,"CC(C)C1=C(C(=O)N2[C@H](C)CC[C@H]2C(=O)N2CCNC3(CC3)C2)SC2=N[C@@](C)(c3ccc(Cl)nc3)[C@@H](c3ccc(C(F)(F)F)c(F)c3)N21 [Example 74, 7-[(5R)-1-({(5R,6S)-6-(6-chloropyridin-3-yl)-5-[3-fluoro-4-(trifluoromethyl)phenyl]-3-isopropyl-6-methyl-5,6-dihydroimidazo[2,1-b][1,3]thiazol-2-yl}carbonyl)-5-methyl-L-prolyl]-4,7-diazaspiro[2.5]octane]"
4,≥ 50,"CCN(C(=O)C1=C(C(C)C)N2C(=N[C@@](C)(c3ccc(Cl)cc3)[C@H]2c2ccc(Cl)c(F)c2)S1)C1(C(=O)N2CCNC3(CC3)C2)CC1 [Example 52, (5R,6S)-5-(4-chloro-3-fluorophenyl)-6-(4-chlorophenyl)-N-[1-(4,7-diazaspiro[2.5]oct-7-ylcarbonyl)cyclopropyl]-N-ethyl-3-isopropyl-6-methyl-5,6-dihydroimidazo[2,1-b][1,3]thiazole-2-carboxamide]"
5,≥ 50,"COc1ccc([C@]2(C)N=C3SC(C(=O)N4[C@H](C)CC[C@H]4C(=O)N4CCNC5(CC5)C4)=C(C(C)C)N3[C@@H]2c2ccc(Cl)c(F)c2)cc1 [Example 72, 7-[(5R)-1-{[(5R,6S)-5-(4-chloro-3-fluorophenyl)-3-isopropyl-6-(4-methoxyphenyl)-6-methyl-5,6-dihydroimidazo[2,1-b][1,3]thiazol-2-yl]carbonyl}-5-methyl-L-prolyl]-4,7-diazaspiro[2.5]octane]"
6,≥ 50,"CCN(C(=O)C1=C(C(C)C)N2C(=N[C@@](C)(c3ccc(Cl)cc3)[C@H]2c2ccc(Cl)cc2)S1)[C@@H](C)C(=O)N1CCNC2(CC2)C1 [Example 54, (5R,6S)-5,6-bis(4-chlorophenyl)-N-[(1S)-2-(4,7-diazaspiro[2.5]oct-7-yl)-1-methyl-2-oxoethyl]-N-ethyl-3-isopropyl-6-methyl-5,6-dihydroimidazo[2,1-b][1,3]thiazole-2-carboxamide]"
7,≥ 50,"CC[C@H]1CNC2(CC2)CN1C(=O)[C@@H]1CC[C@@H](C)N1C(=O)C1=C(C(C)C)N2C(=N[C@@](C)(c3ccc(Cl)nc3)[C@H]2c2ccc(Cl)c(F)c2)S1 [Example 58, (6S)-7-[(5R)-1-{[(5R,6S)-5-(4-chloro-3-fluorophenyl)-6-(6-chloropyridin-3-yl)-3-isopropyl-6-methyl-5,6-dihydroimidazo[2,1-b][1,3]thiazol-2-yl]carbonyl}-5-methyl-L-prolyl]-6-ethyl-4,7-diazaspiro[2.5]octane]"
